One test concerns the target T1, human V2 receptor (Homo sapiens, UniProt P30518).
T1 construct: expressed in transfected cells; host or cells: CHO K1 (ATCC) expressing firefly luciferase under a CRE-responsive promoter
Nature of the test: Cellular in vitro assay for determining vasopressin receptor activity, V2 receptor cell line (CHO, CRE-luciferase). It is filed as cell-based. To be noted: CHO cell line transfected with human V2 receptor, [Arg8]-vasopressin at EC50 concentration, read-out: IC50 hV2.

In a further test the target is T2, human V1a receptor (Homo sapiens, UniProt P37288).
T2 construct: expressed in transfected cells; host or cells: CHO K1 (ATCC), also stably transfected with a modified aequorin
Nature of the test: Cellular in vitro assay for determining vasopressin receptor activity, V1a receptor cell line (CHO, aequorin luminescence). It is filed as cell-based. To be noted: for IC50: CHO cell line transfected with human V1a receptor, [Arg]-vasopressin at EC50 concentration, read-out: IC50 hV1a; for ratio IC50 hV2/hV1a: selectivity ratio IC50 hV2 / IC50 hV1a. Summed up:
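Cells were plated the day before in medium containing 5 μg/ml coelenterazine and kept at 37° C. Compounds at various concentrations were then added for 10 minutes. Next, [Arg]-vasopressin at EC50 was applied and light output recorded at once, yielding IC50.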

For orientation: IC50 means the point on the concentration scale where inhibition reaches its midpoint.

Where two headings read alike, the source gives them in different places.

T2 sequence (P37288 whole entry): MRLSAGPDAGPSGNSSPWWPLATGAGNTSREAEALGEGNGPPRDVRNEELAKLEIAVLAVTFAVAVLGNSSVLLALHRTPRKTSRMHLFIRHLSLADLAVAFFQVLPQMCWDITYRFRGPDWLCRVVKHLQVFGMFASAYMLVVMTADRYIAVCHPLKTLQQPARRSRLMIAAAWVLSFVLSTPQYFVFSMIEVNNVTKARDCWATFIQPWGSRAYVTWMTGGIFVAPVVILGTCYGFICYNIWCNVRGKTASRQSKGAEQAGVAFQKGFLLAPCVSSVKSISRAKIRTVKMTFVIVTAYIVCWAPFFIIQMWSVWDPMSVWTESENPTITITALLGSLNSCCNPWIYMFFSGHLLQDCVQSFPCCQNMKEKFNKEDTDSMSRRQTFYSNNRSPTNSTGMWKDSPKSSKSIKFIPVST
T1 sequence (P30518 whole entry): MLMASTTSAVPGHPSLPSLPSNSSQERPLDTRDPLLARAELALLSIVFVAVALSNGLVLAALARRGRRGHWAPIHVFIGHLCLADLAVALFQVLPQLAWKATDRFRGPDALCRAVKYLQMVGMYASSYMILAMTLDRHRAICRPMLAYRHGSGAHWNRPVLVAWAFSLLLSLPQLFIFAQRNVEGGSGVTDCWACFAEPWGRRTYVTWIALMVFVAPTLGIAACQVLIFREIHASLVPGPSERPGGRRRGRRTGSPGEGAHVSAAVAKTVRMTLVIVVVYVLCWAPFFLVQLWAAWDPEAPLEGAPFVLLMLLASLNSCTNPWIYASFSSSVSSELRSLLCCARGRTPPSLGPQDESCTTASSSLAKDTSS

`COCC1CCCN1C(=O)c1cccnc1-n1nc(Cn2nc(-c3ccc(Cl)cc3)n(C[C@H](O)C(F)(F)F)c2=O)nc1C(=O)N1CCNC(=O)C1` (mixture of isomers) [Example 526, 4-{[3-({3-(4-Chlorophenyl)-5-oxo-4-[(2S)-3,3,3-trifluoro-2-hydroxypropyl]-4,5-dihydro-1H-1,2,4-triazol-1-yl}methyl)-1-(3-{[2-(methoxymethyl)pyrrolidin-1-yl]carbonyl}pyridin-2-yl)-1H-1,2,4-triazol-5-yl]carbonyl}piperazin-2-one]: the half-inhibitory concentration (IC50) on human V2 receptor stood at 20 µM; at human V1a receptor, 8650 nM. The “ratio IC50 hV2/hV1a” value at human V1a receptor worked out at 2.3.

For `COCC1CCCN1C(=O)c1cccnc1-n1nc(Cn2nc(-c3ccc(Cl)cc3)n(C[C@H](O)C(F)(F)F)c2=O)nc1C(=O)N1CCS(=O)(=O)CC1` (mixture of isomers) [Example 532, 5-(4-Chlorophenyl)-2-({5-[(1,1-dioxidothiomorpholin-4-yl)carbonyl]-1-(3-{[2-(methoxymethyl)pyrrolidin-1-yl]carbonyl}pyridin-2-yl)-1H-1,2,4-triazol-3-yl}methyl)-4-[(2S)-3,3,3-trifluoro-2-hydroxypropyl]-2,4-dihydro-3H-1,2,4-triazol-3-one], at human V2 receptor, the half-maximal inhibitory concentration (IC50) came out at 4.85 µM. At human V1a receptor, the 50% inhibitory concentration (IC50) stood at 275 nM and the “ratio IC50 hV2/hV1a” value came out at 17.6.

`COCC1CCCN1C(=O)c1ccncc1-n1nc(Cn2nc(-c3ccc(Cl)cc3)n(C[C@H](O)C(F)(F)F)c2=O)nc1C(=O)NCC(C)(C)N` (mixture of isomers) [Example 536, N-(2-amino-2-methylpropyl)-3-({3-(4-chlorophenyl)-5-oxo-4-[(2S)-3,3,3-trifluoro-2-hydroxypropyl]-4,5-dihydro-1H-1,2,4-triazol-1-yl}methyl)-1-(4-{[2-(methoxymethyl)pyrrolidin-1-yl]carbonyl}pyridin-3-yl)-1H-1,2,4-triazol-5-carboxamide]: the IC50 on human V2 receptor was 83.3 µM. Besides, at human V1a receptor, the IC50 amounted to 280 nM and the “ratio IC50 hV2/hV1a” value came out at 297.6.

Take `O=C(Nc1cccnc1-n1cnc(Cn2nc(-c3ccc(Cl)cc3)n(C[C@H](O)C(F)(F)F)c2=O)n1)[C@@H]1C[C@@H]1C(F)(F)F` (racemic) [Example 45, N-{2-[3-({3-(4-Chlorophenyl)-5-oxo-4-[(2S)-3,3,3-trifluoro-2-hydroxypropyl]-4,5-dihydro-1H-1,2,4-triazol-1-yl}methyl)-1H-1,2,4-triazol-1-yl]pyridin-3-yl}-2-(trifluoromethyl)cyclopropanecarboxamide]: the IC50 on human V2 receptor (3 hours) worked out at 0.693 µM. Further, on human V1a receptor, the IC50 was 33 nM and the “ratio IC50 hV2/hV1a” value stood at 21.0.

On to `O=C(Nc1ncccc1-n1cnc(Cn2nc(-c3ccc(Cl)cc3)n(C[C@H](O)C(F)(F)F)c2=O)n1)[C@@H]1C[C@@H]1F` (racemic) [Example 76, N-{3-[3-({3-(4-Chlorophenyl)-5-oxo-4-[(2S)-3,3,3-trifluoro-2-hydroxypropyl]-4,5-dihydro-1H-1,2,4-triazol-1-yl}methyl)-1H-1,2,4-triazol-1-yl]pyridin-2-yl}-2-fluorocyclopropanecarboxamide], for which the IC50 at human V2 receptor (3 hours) is 2.34 µM; on human V1a receptor, 6.45 nM. Also, on human V1a receptor, the “ratio IC50 hV2/hV1a” value is given as 362.4.

For the compound `O=C(Nc1ncccc1-n1cnc(Cn2nc(-c3ccc(Cl)cc3)n(C[C@H](O)C(F)(F)F)c2=O)n1)[C@@H]1C[C@@H]1C(F)(F)F` (racemic) [Example 79, N-{3-[3-({3-(4-Chlorophenyl)-5-oxo-4-[(2S)-3,3,3-trifluoro-2-hydroxypropyl]-4,5-dihydro-1H-1,2,4-triazol-1-yl}methyl)-1H-1,2,4-triazol-1-yl]pyridin-2-yl}-2-(trifluoromethyl)cyclopropanecarboxamide], the IC50 at human V2 receptor (3 hours) amounted to 10.5 µM. In addition, on human V1a receptor, the IC50 stood at 102 nM and the “ratio IC50 hV2/hV1a” value came to 102.9.

The values are drawn from patent US11173151B2, “Substituted triazole derivatives and uses thereof” (BAYER AKTIENGESELLSCHAFT, priority 2017, dated 2021).
